Measured values reported in PMC10348910, “Epigenetic reprogramming of cell cycle genes by ACK1 promotes breast cancer resistance to CDK4/6 inhibitor” (Oncogene, 2023).

What was measured:
Cal-148 xenografts = experiment: Cal-148 xenograft in mammary fat pad; assay type: in vivo, female SCID mice; settings: 24 mg/Kg subcutaneously, 4 weeks
Protocol: In order to assess the in vivo implications of ACK1 inhibition in TNBCs, Cal-148 xenografts were established in mammary fat pad of female SCID mice. Once the tumors were palpable, the mice were injected subcutaneously with 24 mg/Kg of (R)-9b for 4 weeks and the tumor volumes were measured. On reaching the endpoint, the mice were sacrificed and the tumors were harvested, weighed and photographed. […] RNA was prepared from the tumors, followed by qRT-PCR.
Fig. 6 (R)-9b inhibits breast cancer xenograft tumor growth in vivo. A 2 × 10^6 Cal-148 cells were injected in the 4th inguinal mammary fat pad of female SCID mice. Once the tumors were palpable, the mice were treated subcutaneously with either vehicle (Captisol; n = 8) or (R)-9b at 24 mg/Kg (n = 8) five times a week, for 4 weeks. The tumor volumes were measured twice a week. B, C The tumors were harvested and photographed, and the weights were recorded. D RNA was prepared from the tumors, followed by qRT-PCR to determine the levels of CCNB1, CCNB2 and CDC20 mRNA (n = 3 each). […] The tumors were harvested, their weights were recorded and photographed. […]
All animal experiments were performed using the standards for humane care in accordance with the NIH Guide for the Care and Use of Laboratory Animals. […] Tumor volumes were measured twice a week using calipers. […]

[1] = tested on: pY88-H4 marks in CXCR4 promoter region; experiment: ChIP-qPCR with pY88-H4 antibody for CXCR4 gene; assay type: cell-based; settings: breast cancer cells
Protocol: Fig. 7 ACK1 inhibitor overcomes palbociclib-resistant breast cancer growth and metastasis. A 3 × 10^6 MDA-MB-468 cells were injected in the 4th inguinal mammary fat pad of female SCID mice. Once the tumors were palpable, the mice were treated with either vehicle (Captisol; n = 7), Palbociclib at 80 mg/kg (n = 6), or (R)-9b at 36 mg/Kg (n = 6) orally. In addition, mice were injected with (R)-9b at 24 mg/Kg (n = 7) subcutaneously. Mice were treated five times a week, for 22 days. B, C The tumors were harvested and photographed, and the weights were recorded. D Vehicle or (R)-9b treated breast cancer cells were subjected to ChIP using pY88-H4 antibody, followed by qPCR for CXCR4 gene. […] H Graphical quantitation of lung metastatic deposit. […] The metastases were assessed using IVIS. […] For (A, C–F, I), p values were calculated using unpaired two-tailed Student’s t test.
Cell pellets were resuspended in RLB buffer and sonicated and the soluble chromatin was incubated with antibodies and Protein-G/A magnetic beads. […] The size and quality of the library was evaluated using the Agilent BioAnalyzer (Agilent Technologies, Inc., Santa Clara, CA), and the library was quantitated with the Kapa Library Quantification Kit. Each enriched DNA library was then sequenced on an Illumina NextSeq 500 sequencer to generate 40–50 million 75-base paired-end reads (Illumina, Inc., San Diego, CA). […]

Question: What does the source list for `CN1CCN(c2ccc(Nc3ncc(Cl)c(NC[C@H]4CCCO4)n3)cc2)CC1` [(R)-9b]?
Answer: CCNB1, CCNB2 and CDC20 mRNA levels in tumors (Cal-148 xenografts): significant decrease; xenograft tumor growth (Cal-148 xenografts; five times a week): significant suppression; pY88-H4 epigenetic marks in CXCR4 promoter region [1]: erased these marks
